According to patent publication US20170216421A1, “MANUFACTURING OF MULTI-DOSE INJECTION READY DENDRITIC CELL VACCINES, COMBINATION THERAPIES FOR BLOCKING HER2 AND HER3, AND ESTROGEN RECEPTOR POSITIVE HER2 BREAST RECEPTOR POSITIVE HER2 BREAST CANCER THERAPY” (THE TRUSTEES OF THE UNIVERSITY OF PENNSYLVANIA, priority 2015, published 2017):

Legend:
[1] = test system: MCF7 (HER2^neg 2+/ER^pos); experiment: Alamar Blue metabolic activity assay; type: cell-based, human; conditions: 72 hours
Description: (§1) Breast cancer cell lines, SKBR3 (HER2^pos/ER^neg) and MCF7 (HER2^neg 2+/ER^pos), were treated with Th1 cytokines (IFNγ and TNFα), a tamoxifen metabolite (4-hydroxytamoxifen, “4HT”), or both for 72 hours. Metabolic activity was measured via Alamar Blue assay.

SKBR3 (HER2^pos/ER^neg) = experiment: Alamar Blue metabolic activity assay; type: cell-based, human; conditions: 72 hours
Description: as §1

[2] = test system: BRAF^V600EPTEN^−/− melanoma; experiment: Transplantable melanoma model: tumor growth and survival; type: in vivo, mice; conditions: administered alone
Description: A transplantable BRAF^V600EPTEN^−/− melanoma model was developed in the C57Bl/6 background. DC1 were generated from bone marrow precursors using Flt3, IL-6, GM-CSF, IL-4, CpG and LPS, and pulsed with class I BRAF^V600E peptide. In addition to untreated and ovalbumin-DC1 controls, BRAF^V600E-DC1 (2× weekly injections) and PLX were administered alone or in designated combinations to tumor-bearing mice (n=10 each). Tumor growth and survival were determined.

Compound	anti-tumor activity / metabolic activity [1]	anti-tumor activity / metabolic activity (SKBR3 (HER2^pos/ER^neg))	median survival [2]
4-hydroxytamoxifen [4HT]	did not increase anti-tumor activity	not in response to anti-estrogen treatment	
CCCS(=O)(=O)Nc1ccc(F)c(C(=O)c2c[nH]c3ncc(-c4ccc(Cl)cc4)cc23)c1F [PLX, vemurafenib]			43.5 days
